What all share (conditions): 250 g/ha, evaluated after 13 days, five-point scale
Test [1] relates to Amaranthus retoflexus (AMARE). The experiment in a line: Post-emergence herbicidal glasshouse test. In kind it is in vivo.
The subject of test [2] is AMAPA. The experiment in a line: Post-emergence herbicidal glasshouse test. In kind it is in vivo, Amaranthus tuberculatus.
Test [3] has as its system Echinochloa crus-galli (ECHCG). Briefly: Post-emergence herbicidal glasshouse test. Format: in vivo.
Test [4] deals with Ipomoea hederacea (IPOHE). The experiment in a line: Post-emergence herbicidal glasshouse test. In kind it is in vivo.
The subject of test [5] is Setaria faberi (SETFA). The experiment in a line: Post-emergence herbicidal glasshouse test. Format: in vivo.
The test system of test [6] is Amaranthus retoflexus (AMARE). The experiment in a line: Pre-emergence herbicidal glasshouse test. In kind it is in vivo.
For test [7], the system named is AMAPA. Briefly: Pre-emergence herbicidal glasshouse test. In kind it is in vivo, Amaranthus tuberculatus.
The subject of test [8] is Echinochloa crus-galli (ECHCG). The experiment in a line: Pre-emergence herbicidal glasshouse test. Format: in vivo.
Test [9] concerns Ipomoea hederacea (IPOHE). The experiment in a line: Pre-emergence herbicidal glasshouse test. Format: in vivo.
Test [10] relates to Setaria faberi (SETFA). The experiment in a line: Pre-emergence herbicidal glasshouse test. Format: in vivo.

Take `Cc1nc(C(F)(F)F)nc2cccc(Oc3ncc(Cl)cn3)c12` [Compound 1.001, 5-(5-chloropyrimidin-2-yl)oxy-4-methyl-2-(trifluoromethyl)quinazoline]: the “percentage damage caused to the plant, AMARE” value in test [1] and in test [6] was 5 (5=81-100%) in each case. Moreover, the “percentage damage caused to the plant, AMAPA” value in the test with AMAPA [2] and with AMAPA [7] was 5 (5=81-100%) in each case. In addition, the “percentage damage caused to the plant, ECHCG” value in test [3] and in test [8] was 3 (3=41-60%) each time. Also, the “percentage damage caused to the plant, IPOHE” value in [4] is given as 2 (2=21-40%); in [9], 5 (5=81-100%). Moreover, the “percentage damage caused to the plant, SETFA” value in the test on Setaria faberi (SETFA) [5] was 4 (4=61-80%); in the test on Setaria faberi (SETFA) [10], 3 (3=41-60%).

For `FC(F)(F)c1ncc2c(Oc3ncc(Cl)cn3)cccc2n1` [Compound 1.002, 5-(5-chloropyrimidin-2-yl)oxy-2-(trifluoromethyl)quinazoline], the “percentage damage caused to the plant, AMARE” value in [1] and in [6] was 5 (5=81-100%) in each case. Also, the “percentage damage caused to the plant, AMAPA” value in the test on AMAPA [2] and in the test with AMAPA [7] was 5 (5=81-100%) throughout. The “percentage damage caused to the plant, ECHCG” value in test [3] and in test [8] was 5 (5=81-100%) throughout. In addition, the entries for the “percentage damage caused to the plant, IPOHE” value in test [4] and in test [9] were 4 (4=61-80%) and 5 (5=81-100%), respectively. Further, the “percentage damage caused to the plant, SETFA” value was 4 (4=61-80%) in the test with Setaria faberi (SETFA) [5] and 5 (5=81-100%) in the test on Setaria faberi (SETFA) [10].

With `N#Cc1cnc(Oc2cccc3nc(C(F)(F)F)ncc23)nc1` [Compound 1.003], the “percentage damage caused to the plant, AMARE” value in test [1] and in test [6] was 1 (1=0-20%) each time. Further, the “percentage damage caused to the plant, AMAPA” value in the test with AMAPA [2] and in the test on AMAPA [7] was 1 (1=0-20%) each time. Besides, the “percentage damage caused to the plant, ECHCG” value in test [3] and in test [8] was 1 (1=0-20%) each time. The “percentage damage caused to the plant, IPOHE” value in [4] and in [9] was 1 (1=0-20%) throughout. Further, the “percentage damage caused to the plant, SETFA” value with Setaria faberi (SETFA) [5] and in the test with Setaria faberi (SETFA) [10] was 1 (1=0-20%) each time.

For `Cc1cnc(Oc2cccc3nc(C(F)(F)F)ncc23)nc1` [Compound 1.004], the “percentage damage caused to the plant, AMARE” value in test [1] is 3 (3=41-60%); in [6], 5 (5=81-100%). Besides, the “percentage damage caused to the plant, AMAPA” value in the test with AMAPA [2] and in the test with AMAPA [7] was 4 (4=61-80%) in each case. Moreover, the “percentage damage caused to the plant, ECHCG” value is listed as 3 (3=41-60%) in test [3] and 5 (5=81-100%) in [8]. The “percentage damage caused to the plant, IPOHE” value in test [4] and in test [9] was 4 (4=61-80%) in each case. Besides, the “percentage damage caused to the plant, SETFA” value with Setaria faberi (SETFA) [5] and in the test with Setaria faberi (SETFA) [10] was 4 (4=61-80%) each time.

Regarding `FC(F)(F)c1ncc2c(Oc3ncc(Br)cn3)cccc2n1` [Compound 1.005], the “percentage damage caused to the plant, AMARE” value is 4 (4=61-80%) in [1] and 5 (5=81-100%) in test [6]. Further, the “percentage damage caused to the plant, AMAPA” value with AMAPA [2] and in the test with AMAPA [7] was 5 (5=81-100%) each time. Further, the figures for the “percentage damage caused to the plant, ECHCG” value in test [3] and in [8] were 4 (4=61-80%) and 3 (3=41-60%), respectively. For the same molecule, the “percentage damage caused to the plant, IPOHE” value is recorded as 4 (4=61-80%) in [4] and 3 (3=41-60%) in test [9]. Further, the “percentage damage caused to the plant, SETFA” value in the test with Setaria faberi (SETFA) [5] and with Setaria faberi (SETFA) [10] was 4 (4=61-80%) in each case.

Take `Fc1cc(Cl)cnc1Oc1cccc2nc(C(F)(F)F)ncc12` [Compound 1.006]: the “percentage damage caused to the plant, AMARE” value in test [1] is recorded as 2 (2=21-40%); in test [6], 1 (1=0-20%). The “percentage damage caused to the plant, AMAPA” value with AMAPA [2] and with AMAPA [7] was 1 (1=0-20%) throughout. Further, the “percentage damage caused to the plant, ECHCG” value in [3] and in [8] was 1 (1=0-20%) each time. In addition, the “percentage damage caused to the plant, IPOHE” value in test [4] is reported as 2 (2=21-40%); in test [9], 1 (1=0-20%). Further, the “percentage damage caused to the plant, SETFA” value in the test on Setaria faberi (SETFA) [5] and in the test with Setaria faberi (SETFA) [10] was 1 (1=0-20%) throughout.

Regarding `N#Cc1cc(Cl)cnc1Oc1cccc2nc(C(F)(F)F)ncc12` [Compound 1.007], the results for the “percentage damage caused to the plant, AMARE” value in test [1] and in test [6] were 2 (2=21-40%) and 4 (4=61-80%), respectively. The “percentage damage caused to the plant, ECHCG” value is on record as 3 (3=41-60%) in [3] and 4 (4=61-80%) in test [8]. Besides, the “percentage damage caused to the plant, IPOHE” value in test [4] and in test [9] was 2 (2=21-40%) each time. In addition, the figures for the “percentage damage caused to the plant, SETFA” value in the test with Setaria faberi (SETFA) [5] and in the test with Setaria faberi (SETFA) [10] were 4 (4=61-80%) and 5 (5=81-100%), respectively. The “percentage damage caused to the plant, AMAPA” value in the test on AMAPA [7] is on record as 4 (4=61-80%).

`Cc1cnc(Oc2cccc3nc(C(F)(F)Cl)ncc23)nc1` [Compound 1.056, 2-[chloro(difluoro)methyl]-5-(5-methylpyrimidin-2-yl)oxy-quinazoline]: the “percentage damage caused to the plant, AMARE” value in [1] is listed as 2 (2=21-40%); in test [6], 5 (5=81-100%). In addition, the “percentage damage caused to the plant, AMAPA” value is recorded as 4 (4=61-80%) with AMAPA [2] and 5 (5=81-100%) with AMAPA [7]. For the same molecule, the “percentage damage caused to the plant, ECHCG” value in test [3] is 3 (3=41-60%); in test [8] it was 5 (5=81-100%). In addition, the “percentage damage caused to the plant, IPOHE” value is 4 (4=61-80%) in test [4] and 5 (5=81-100%) in [9].

Consider `FC(F)(Cl)c1ncc2c(Oc3ncc(Cl)cn3)cccc2n1` [Compound 1.057], for which the “percentage damage caused to the plant, AMARE” value is on record as 4 (4=61-80%) in test [1] and 5 (5=81-100%) in test [6]. Also, the “percentage damage caused to the plant, AMAPA” value with AMAPA [2] is given as 4 (4=61-80%); in the test with AMAPA [7], 5 (5=81-100%). The “percentage damage caused to the plant, ECHCG” value is on record as 4 (4=61-80%) in [3] and 5 (5=81-100%) in test [8]. Moreover, the “percentage damage caused to the plant, IPOHE” value in [4] was 4 (4=61-80%); in [9], 5 (5=81-100%).

As for `Fc1cnc(Oc2cccc3nc(C(F)F)ncc23)nc1` [Compound 1.058], the results for the “percentage damage caused to the plant, AMARE” value in test [1] and in test [6] were 2 (2=21-40%) and 5 (5=81-100%), respectively. In addition, the entries for the “percentage damage caused to the plant, AMAPA” value with AMAPA [2] and with AMAPA [7] were 2 (2=21-40%) and 5 (5=81-100%), respectively. In addition, the “percentage damage caused to the plant, ECHCG” value in test [3] and in test [8] was 1 (1=0-20%) throughout. Also, the “percentage damage caused to the plant, IPOHE” value in test [4] was 4 (4=61-80%); in [9], 3 (3=41-60%).

As for `Fc1cnc(Oc2cccc3nc(C(F)(F)Cl)ncc23)nc1` [Compound 1.061, 2-[chloro(difluoro)methyl]-5-(5-fluoropyrimidin-2-yl)oxy-quinazoline], the “percentage damage caused to the plant, AMARE” value in test [1] is recorded as 4 (4=61-80%); in test [6] it was 5 (5=81-100%). Also, the “percentage damage caused to the plant, AMAPA” value in the test on AMAPA [2] is reported as 4 (4=61-80%); in the test with AMAPA [7] it was 5 (5=81-100%). Moreover, the “percentage damage caused to the plant, ECHCG” value in test [3] is 4 (4=61-80%); in test [8], 5 (5=81-100%). Besides, the figures for the “percentage damage caused to the plant, IPOHE” value in [4] and in test [9] were 4 (4=61-80%) and 5 (5=81-100%), respectively.

Regarding `N#Cc1ccc(Oc2ncc(Cl)cn2)c2cnc(C(F)(F)F)nc12` [Compound 1.065], the “percentage damage caused to the plant, AMARE” value in test [1] and in test [6] was 1 (1=0-20%) each time. The “percentage damage caused to the plant, AMAPA” value in the test with AMAPA [2] and with AMAPA [7] was 1 (1=0-20%) throughout. Besides, the “percentage damage caused to the plant, ECHCG” value in [3] and in test [8] was 1 (1=0-20%) in each case. The entries for the “percentage damage caused to the plant, IPOHE” value in test [4] and in test [9] were 2 (2=21-40%) and 1 (1=0-20%), respectively.

In the case of `Cc1cc(C(F)(F)F)nc2cccc(Oc3ncc(Cl)cc3F)c12` [Compound 1.066], the “percentage damage caused to the plant, AMARE” value in test [1] and in [6] was 1 (1=0-20%) in each case. Besides, the “percentage damage caused to the plant, AMAPA” value in the test with AMAPA [2] and in the test on AMAPA [7] was 1 (1=0-20%) throughout. In addition, the “percentage damage caused to the plant, ECHCG” value in test [3] and in test [8] was 1 (1=0-20%) throughout. In addition, the “percentage damage caused to the plant, IPOHE” value in test [4] and in [9] was 1 (1=0-20%) each time.

These data come from patent publication US20250179052A1, “PYRIMIDINYL-OXY-QUINOLINE BASED HERBICIDAL COMPOUNDS” (SYNGENTA CROP PROTECTION AG, priority 2022, published 2025).
